Test results from US20230085307A1, “PYRIDAZINONE COMPOUND AND HERBICIDE” (NISSAN CHEMICAL CORPORATION, priority 2019, published 2023).

Key:
late watergrass = experiment: Test Example 1: herbicidal activity, application before weed generation under submerged conditions (Table 16, symbol A); format: in vivo, late watergrass (Echinochloa oryzicola); details: amount of applied herbicide 320 g/ha
Summary of the method: (§1)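 Submerged Wagner pots (alluvial soil, 4 cm water) sown with weed seeds and planted with 2.5-leaf rice seedlings; emulsifiable concentrate diluted in water applied to water surface on sowing day. Held in greenhouse at 25-30 °C; injury scored 0-5 by herbicidal rate after three weeks.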

Japanese bulrush = experiment: Test Example 1: herbicidal activity, application before weed generation under submerged conditions (Table 16, symbol B); format: in vivo, Japanese bulrush (Schoenoplectus juncoides); details: amount of applied herbicide 320 g/ha
Summary of the method: as §1

oval-leafed pondweed = experiment: Test Example 1: herbicidal activity, application before weed generation under submerged conditions (Table 16, symbol C); format: in vivo, oval-leafed pondweed (Monochoria vaginalis); details: amount of applied herbicide 320 g/ha
Summary of the method: as §1

barnyard grass [1] = experiment: Test Example 3: herbicidal effect by foliage application, Wagner pot (Table 18, symbol H); format: in vivo, barnyard grass (Echinochloa crus-galli); details: amount of applied herbicide 320 g/ha
Summary of the method: (§2)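 Plants were sown in alluvial soil held under 0.1–0.5 cm standing water and grown 14 days in a greenhouse at 25–30 °C. An emulsifiable formulation, water-diluted to the set dose, was then sprayed onto the foliage, and effects were scored three weeks later using previously defined criteria.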

Chinese sprangletop = experiment: Test Example 3: herbicidal effect by foliage application, Wagner pot (Table 18, symbol D); format: in vivo, chinese sprangletop (Leptochloa chinensis); details: amount of applied herbicide 320 g/ha
Summary of the method: as §2

rice flat sedge = experiment: Test Example 3: herbicidal effect by foliage application, Wagner pot (Table 18, symbol E); format: in vivo, rice flat sedge (Cyperus iria); details: amount of applied herbicide 320 g/ha
Summary of the method: as §2

southern crabgrass [2] = experiment: Test Example 4: herbicidal effect by soil treatment (Table 19, symbol F); format: in vivo, southern crabgrass (Digitaria ciliaris); details: amount of applied herbicide 320 g/ha
Summary of the method: (§3)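 Step 1: sow seeds in sterilized diluvial soil, cover ~1.5 cm. Step 2: spray diluted emulsion onto soil surface at predetermined rate. Step 3: greenhouse, 25–30° C, three weeks. Step 4: grade effect on each plant by earlier criteria.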

green foxtail [3] = experiment: Test Example 4: herbicidal effect by soil treatment (Table 19, symbol G); format: in vivo, green foxtail (Setaria viridis); details: amount of applied herbicide 320 g/ha
Summary of the method: as §3

barnyard grass [4] = experiment: Test Example 4: herbicidal effect by soil treatment (Table 19, symbol H); format: in vivo, barnyard grass (Echinochloa crus-galli); details: amount of applied herbicide 320 g/ha
Summary of the method: as §3

wild oat [5] = experiment: Test Example 4: herbicidal effect by soil treatment (Table 19, symbol I); format: in vivo, wild oat (Avena fatua); details: amount of applied herbicide 320 g/ha
Summary of the method: as §3

Italian ryegrass [6] = experiment: Test Example 4: herbicidal effect by soil treatment (Table 19, symbol K); format: in vivo, Italian ryegrass (Lolium multiflorum); details: amount of applied herbicide 320 g/ha
Summary of the method: as §3

windgrass [7] = experiment: Test Example 4: herbicidal effect by soil treatment (Table 19, symbol L); format: in vivo, windgrass (Apera spica-venti); details: amount of applied herbicide 320 g/ha
Summary of the method: as §3

velvetleaf [8] = experiment: Test Example 4: herbicidal effect by soil treatment (Table 19, symbol M); format: in vivo, velvetleaf (Abutilon theophrasti); details: amount of applied herbicide 320 g/ha
Summary of the method: as §3

redroot pigweed [9] = experiment: Test Example 4: herbicidal effect by soil treatment (Table 19, symbol N); format: in vivo, redroot pigweed (Amaranthus retroflexus); details: amount of applied herbicide 320 g/ha
Summary of the method: as §3

lambsquarters [10] = experiment: Test Example 4: herbicidal effect by soil treatment (Table 19, symbol O); format: in vivo, lambsquarters (Chenopodium album); details: amount of applied herbicide 320 g/ha
Summary of the method: as §3

chickweed [11] = experiment: Test Example 4: herbicidal effect by soil treatment (Table 19, symbol P); format: in vivo, common chickweed (Stellaria media); details: amount of applied herbicide 320 g/ha
Summary of the method: as §3

persian speedwell [12] = experiment: Test Example 4: herbicidal effect by soil treatment (Table 19, symbol R); format: in vivo, Persian speedwell (Veronica persica); details: amount of applied herbicide 320 g/ha
Summary of the method: as §3

southern crabgrass [13] = experiment: Test Example 5: herbicidal effect by foliage application, plastic box (Table 20, symbol F); format: in vivo, southern crabgrass (Digitaria ciliaris); details: foliage application
Summary of the method: (§4)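 Foliar spray test: emulsion formulation diluted in water to a set application rate, sprayed onto 14-day-old plants raised in diluvial soil at 25° C to 30° C under glass. Both herbicidal effect and crop effect rated visually three weeks later.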

green foxtail [14] = experiment: Test Example 5: herbicidal effect by foliage application, plastic box (Table 20, symbol G); format: in vivo, green foxtail (Setaria viridis); details: foliage application
Summary of the method: as §4

barnyard grass [15] = experiment: Test Example 5: herbicidal effect by foliage application, plastic box (Table 20, symbol H); format: in vivo, barnyard grass (Echinochloa crus-galli); details: foliage application
Summary of the method: as §4

wild oat [16] = experiment: Test Example 5: herbicidal effect by foliage application, plastic box (Table 20, symbol I); format: in vivo, wild oat (Avena fatua); details: foliage application
Summary of the method: as §4

blackgrass = experiment: Test Example 5: herbicidal effect by foliage application, plastic box (Table 20, symbol J); format: in vivo, blackgrass (Alopecurus myosuroides); details: foliage application
Summary of the method: as §4

Italian ryegrass [17] = experiment: Test Example 5: herbicidal effect by foliage application, plastic box (Table 20, symbol K); format: in vivo, Italian ryegrass (Lolium multiflorum); details: foliage application
Summary of the method: as §4

windgrass [18] = experiment: Test Example 5: herbicidal effect by foliage application, plastic box (Table 20, symbol L); format: in vivo, windgrass (Apera spica-venti); details: foliage application
Summary of the method: as §4

velvetleaf [19] = experiment: Test Example 5: herbicidal effect by foliage application, plastic box (Table 20, symbol M); format: in vivo, velvetleaf (Abutilon theophrasti); details: foliage application
Summary of the method: as §4

redroot pigweed [20] = experiment: Test Example 5: herbicidal effect by foliage application, plastic box (Table 20, symbol N); format: in vivo, redroot pigweed (Amaranthus retroflexus); details: foliage application
Summary of the method: as §4

lambsquarters [21] = experiment: Test Example 5: herbicidal effect by foliage application, plastic box (Table 20, symbol O); format: in vivo, lambsquarters (Chenopodium album); details: foliage application
Summary of the method: as §4

chickweed [22] = experiment: Test Example 5: herbicidal effect by foliage application, plastic box (Table 20, symbol P); format: in vivo, common chickweed (Stellaria media); details: foliage application
Summary of the method: as §4

persian speedwell [23] = experiment: Test Example 5: herbicidal effect by foliage application, plastic box (Table 20, symbol R); format: in vivo, Persian speedwell (Veronica persica); details: foliage application
Summary of the method: as §4

[24] = AAH 320 g/ha, evaluated three weeks after application
[25] = 320 g/ha, three weeks after application

Row | Structure (SMILES) | Herbicidal effect, A: late watergrass (late watergrass) | Herbicidal effect, B: Japanese bulrush (Japanese bulrush) | Herbicidal effect, C: oval-leafed pondweed (oval-leafed pondweed) | herbicidal effect on H: barnyard grass (barnyard grass [1]) | herbicidal effect on D: Chinese sprangletop (Chinese sprangletop) | herbicidal effect on E: rice flat sedge (rice flat sedge) | herbicidal effect, F: southern crabgrass (southern crabgrass [2]) | herbicidal effect, G: green foxtail (green foxtail [3]) | herbicidal effect, H: barnyard grass (barnyard grass [4]) | herbicidal effect, I: wild oat (wild oat [5]) | herbicidal effect, K: Italian ryegrass (Italian ryegrass [6]) | herbicidal effect, L: windgrass (windgrass [7]) | herbicidal effect, M: velvetleaf (velvetleaf [8]) | herbicidal effect, N: redroot pigweed (redroot pigweed [9]) | herbicidal effect, O: lambsquarters (lambsquarters [10]) | herbicidal effect, P: chickweed (chickweed [11]) | herbicidal effect, R: persian speedwell (persian speedwell [12]) | also measured
1 | CCCC(=O)Oc1c(C)nn(C)c(=O)c1-c1c(-c2ccc3c(c2)OC(F)(F)O3)sc2ccc(F)cc12 [2-393] | 3 (Herbicidal rate of 40% or more and less than 70%) | 0 (Herbicidal rate of 5% or less (almost no effect)) | 0 (Herbicidal rate of 5% or less (almost no effect)) | 5 (Herbicidal rate of 90% or more (almost completely withered)) | 1 (Herbicidal rate of 5% or more and less than 20%) | 3 (Herbicidal rate of 40% or more and less than 70%) | 0 (Herbicidal rate of 5% or less (almost no effect)) | 0 (Herbicidal rate of 5% or less (almost no effect)) | 0 (Herbicidal rate of 5% or less (almost no effect)) | 0 (Herbicidal rate of 5% or less (almost no effect)) | 4 (Herbicidal rate of 70% or more and less than 90%) | 5 (Herbicidal rate of 90% or more (almost completely withered)) | 0 (Herbicidal rate of 5% or less (almost no effect)) | 0 (Herbicidal rate of 5% or less (almost no effect)) | 0 (Herbicidal rate of 5% or less (almost no effect)) | 4 (Herbicidal rate of 70% or more and less than 90%) | 4 (Herbicidal rate of 70% or more and less than 90%) | F: southern crabgrass, herbicidal effect (criteria 0-5) (southern crabgrass [13]; [24]): 1 (Herbicidal rate of 5% or more and less than 20%); G: green foxtail, herbicidal effect (criteria 0-5) (green foxtail [14]; [24]): 4 (Herbicidal rate of 70% or more and less than 90%); H: barnyard grass, herbicidal effect (criteria 0-5) (barnyard grass [15]; [24]): 5 (Herbicidal rate of 90% or more (almost completely withered)); I: wild oat, herbicidal effect (criteria 0-5) (wild oat [16]; [24]): 4 (Herbicidal rate of 70% or more and less than 90%); J: blackgrass, herbicidal effect (criteria 0-5) (blackgrass; [24]): 1 (Herbicidal rate of 5% or more and less than 20%); K: Italian ryegrass, herbicidal effect (criteria 0-5) (Italian ryegrass [17]; [24]): 4 (Herbicidal rate of 70% or more and less than 90%); L: windgrass, herbicidal effect (criteria 0-5) (windgrass [18]; [24]): 5 (Herbicidal rate of 90% or more (almost completely withered)); M: velvetleaf, herbicidal effect (criteria 0-5) (velvetleaf [19]; [24]): 4 (Herbicidal rate of 70% or more and less than 90%); N: redroot pigweed, herbicidal effect (criteria 0-5) (redroot pigweed [20]; [24]): 4 (Herbicidal rate of 70% or more and less than 90%); O: lambsquarters, herbicidal effect (criteria 0-5) (lambsquarters [21]; [24]): 4 (Herbicidal rate of 70% or more and less than 90%); P: chickweed, herbicidal effect (criteria 0-5) (chickweed [22]; [24]): 5 (Herbicidal rate of 90% or more (almost completely withered)); R: persian speedwell, herbicidal effect (criteria 0-5) (persian speedwell [23]; [24]): 5 (Herbicidal rate of 90% or more (almost completely withered))
2 | Cc1nn(C)c(=O)c(-c2c(-c3ccc(N(C)C)cc3)sc3ccc(F)cc23)c1O [2-425] | 3 (Herbicidal rate of 40% or more and less than 70%) | 3 (Herbicidal rate of 40% or more and less than 70%) | 0 (Herbicidal rate of 5% or less (almost no effect)) | 4 (Herbicidal rate of 70% or more and less than 90%) | 2 (Herbicidal rate of 20% or more and less than 40%) | 5 (Herbicidal rate of 90% or more (almost completely withered)) | 0 (Herbicidal rate of 5% or less (almost no effect)) | 0 (Herbicidal rate of 5% or less (almost no effect)) | 0 (Herbicidal rate of 5% or less (almost no effect)) | 0 (Herbicidal rate of 5% or less (almost no effect)) | 2 (Herbicidal rate of 20% or more and less than 40%) | 0 (Herbicidal rate of 5% or less (almost no effect)) | 0 (Herbicidal rate of 5% or less (almost no effect)) | 5 (Herbicidal rate of 90% or more (almost completely withered)) | 4 (Herbicidal rate of 70% or more and less than 90%) | 3 (Herbicidal rate of 40% or more and less than 70%) | 5 (Herbicidal rate of 90% or more (almost completely withered)) | F: southern crabgrass, herbicidal effect grade (southern crabgrass [13]; [25]): 5 (Herbicidal rate of 90% or more (almost completely withered)); G: green foxtail, herbicidal effect grade (green foxtail [14]; [25]): 5 (Herbicidal rate of 90% or more (almost completely withered)); H: barnyard grass, herbicidal effect grade (barnyard grass [15]; [25]): 4 (Herbicidal rate of 70% or more and less than 90%); I: wild oat, herbicidal effect grade (wild oat [16]; [25]): 4 (Herbicidal rate of 70% or more and less than 90%); J: blackgrass, herbicidal effect grade (blackgrass; [25]): 4 (Herbicidal rate of 70% or more and less than 90%); K: Italian ryegrass, herbicidal effect grade (Italian ryegrass [17]; [25]): 4 (Herbicidal rate of 70% or more and less than 90%); L: windgrass, herbicidal effect grade (windgrass [18]; [25]): 5 (Herbicidal rate of 90% or more (almost completely withered)); M: velvetleaf, herbicidal effect grade (velvetleaf [19]; [25]): 5 (Herbicidal rate of 90% or more (almost completely withered)); N: redroot pigweed, herbicidal effect grade (redroot pigweed [20]; [25]): 5 (Herbicidal rate of 90% or more (almost completely withered)); O: lambsquarters, herbicidal effect grade (lambsquarters [21]; [25]): 5 (Herbicidal rate of 90% or more (almost completely withered)); P: chickweed, herbicidal effect grade (chickweed [22]; [25]): 5 (Herbicidal rate of 90% or more (almost completely withered)); R: persian speedwell, herbicidal effect grade (persian speedwell [23]; [25]): 5 (Herbicidal rate of 90% or more (almost completely withered))
